Source: US20210045385A1, “PYRIDAZINONE-SUBSTITUTED KETOXIMES AS HERBICIDES” (FMC Corporation, priority 2018, published 2021)

Experiments:
Format in all cases: in vivo
[1] = tested on: barnyardgrass (Echinochloa crus-galli); experiment: Test D flooded paddy test, visual plant response rating; details: 250 g ai/ha, scale 0 to 100 (0 no effect, 100 complete control), 13 to 15 d
How it was run: (§1)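 Rating is visual, on a 0 (no effect) to 100 (complete control) scale versus controls, taken 13 to 15 d after treatment in a greenhouse. Treatment went into paddy water kept 3 cm above the soil surface, with plants at the 2-leaf stage.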

[2] = tested on: duck salad (Heteranthera limosa); experiment: as above; details: 250 g ai/ha, scale 0 to 100 (0 no effect, 100 complete control), 13 to 15 d
How it was run: as §1

rice (Oryza sativa) = experiment: as above; details: 250 g ai/ha, scale 0 to 100 (0 no effect, 100 complete control), 13 to 15 d
How it was run: as §1

[3] = tested on: sedge umbrella (small-flower umbrella sedge, Cyperus difformis); experiment: as above; details: 250 g ai/ha, scale 0 to 100 (0 no effect, 100 complete control), 13 to 15 d
How it was run: as §1

[4] = tested on: pigweed (Amaranthus retroflexus); experiment: Test C preemergence, visual plant response rating; details: Test C, 0 is no effect, 100 is complete control
How it was run: (§2)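 Visual injury on a 0 (no effect) to 100 (complete control) scale versus untreated controls, scored approximately 10 d after treatment under greenhouse conditions. Treatments used surfactant-containing non-phytotoxic solvent formulations, sprayed onto loam–sand soil preemergence or onto one- to two-leaf plants 2–10 cm tall postemergence.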

[5] = tested on: barnyardgrass (Echinochloa crus-galli); experiment: Test C preemergence, visual plant response rating; details: Test C, 0 is no effect, 100 is complete control
How it was run: as §2

[6] = tested on: ragweed (common ragweed, Ambrosia artemisiifolia); experiment: Test C preemergence, visual plant response rating; details: Test C, 0 is no effect, 100 is complete control
How it was run: as §2

kochia (Bassia scoparia) [7] = experiment: Test C preemergence, visual plant response rating; details: Test C, 0 is no effect, 100 is complete control
How it was run: as §2

[8] = tested on: foxtail, giant (giant foxtail, Setaria faberi); experiment: Test C preemergence, visual plant response rating; details: Test C, 0 is no effect, 100 is complete control
How it was run: as §2

[9] = tested on: Italian ryegrass (Lolium mutiflorum); experiment: Test C preemergence, visual plant response rating; details: Test C, 0 is no effect, 100 is complete control
How it was run: as §2

[10] = tested on: pigweed (Amaranthus retroflexus); experiment: Test C postemergence, visual plant response rating
How it was run: as §2

[11] = tested on: wheat (Triticum aestivum); experiment: Test C postemergence, visual plant response rating
How it was run: as §2

corn (Zea mays) = experiment: Test C postemergence, visual plant response rating
How it was run: as §2

[12] = tested on: barnyardgrass (Echinochloa crus-galli); experiment: Test C postemergence, visual plant response rating
How it was run: as §2

[13] = tested on: ragweed (common ragweed, Ambrosia artemisiifolia); experiment: Test C postemergence, visual plant response rating
How it was run: as §2

kochia (Bassia scoparia) [14] = experiment: Test C postemergence, visual plant response rating
How it was run: as §2

[15] = tested on: blackgrass (Alopecurus myosuroides); experiment: Test C postemergence, visual plant response rating
How it was run: as §2

[16] = tested on: galium (catchweed bedstraw, Galium aparine); experiment: Test C postemergence, visual plant response rating
How it was run: as §2

[17] = tested on: foxtail, giant (giant foxtail, Setaria faberi); experiment: Test C postemergence, visual plant response rating
How it was run: as §2

[18] = tested on: Italian ryegrass (Lolium mutiflorum); experiment: Test C postemergence, visual plant response rating
How it was run: as §2

[19] = Test C, postemergence, 125 g ai/ha

SMILES | Plant response rating, Barnyardgrass (Flood) [1] | Plant response rating, Ducksalad (Flood) [2] | Plant response rating, Rice (Flood) (rice (Oryza sativa)) | Plant response rating, Sedge, Umbrella (Flood) [3] | Pigweed plant response rating (0 to 100 scale) ([4]; 31 g ai/ha) | Pigweed plant response rating (0 to 100 scale) ([4]; 125 g ai/ha) | Barnyardgrass plant response rating (0 to 100 scale) ([5]; 31 g ai/ha) | Barnyardgrass plant response rating (0 to 100 scale) ([5]; 125 g ai/ha) | Ragweed plant response rating (0 to 100 scale) ([6]; 31 g ai/ha) | Ragweed plant response rating (0 to 100 scale) ([6]; 125 g ai/ha) | Kochia plant response rating (0 to 100 scale) (kochia (Bassia scoparia) [7]; 31 g ai/ha) | Kochia plant response rating (0 to 100 scale) (kochia (Bassia scoparia) [7]; 125 g ai/ha) | Foxtail, Giant plant response rating (0 to 100 scale) ([8]; 31 g ai/ha) | Foxtail, Giant plant response rating (0 to 100 scale) ([8]; 125 g ai/ha) | Ryegrass, Italian plant response rating (0 to 100 scale) ([9]; 31 g ai/ha) | Ryegrass, Italian plant response rating (0 to 100 scale) ([9]; 125 g ai/ha) | Pigweed plant response rating (0 to 100 scale) ([10]; Postemergence, 31 g ai/ha) | Pigweed plant response rating (0 to 100 scale) [10, 19] | Wheat plant response rating (0 to 100 scale) ([11]; Postemergence, 31 g ai/ha) | Wheat plant response rating (0 to 100 scale) [11, 19] | further results
CO/N=C(/c1c(O)cnn(C)c1=O)c1ccc(F)c2ccccc12 [Compound 304] | 0 | 0 | 0 | 0 | 10 | 20 | 0 | 0 | 0 | 40 | 0 | 0 | 0 | 10 | 0 | 20 | 50 | 80 | 0 | 0 | Corn plant response rating (0 to 100 scale) (corn (Zea mays); Postemergence, 31 g ai/ha): 10; Corn plant response rating (0 to 100 scale) (corn (Zea mays); [19]): 20; Barnyardgrass plant response rating (0 to 100 scale) ([12]; Postemergence, 31 g ai/ha): 0; Barnyardgrass plant response rating (0 to 100 scale) [12, 19]: 0; Ragweed plant response rating (0 to 100 scale) ([13]; Postemergence, 31 g ai/ha): 0; Ragweed plant response rating (0 to 100 scale) [13, 19]: 10; Kochia plant response rating (0 to 100 scale) (kochia (Bassia scoparia) [14]; Postemergence, 31 g ai/ha): 30; Kochia plant response rating (0 to 100 scale) (kochia (Bassia scoparia) [14]; [19]): 50; Blackgrass plant response rating (0 to 100 scale) ([15]; Postemergence, 31 g ai/ha): 0; Blackgrass plant response rating (0 to 100 scale) [15, 19]: 0; Galium plant response rating (0 to 100 scale) ([16]; Postemergence, 31 g ai/ha): 10; Galium plant response rating (0 to 100 scale) [16, 19]: 80; Foxtail, Giant plant response rating (0 to 100 scale) ([17]; Postemergence, 31 g ai/ha): 0; Foxtail, Giant plant response rating (0 to 100 scale) [17, 19]: 20; Ryegrass, Italian plant response rating (0 to 100 scale) ([18]; Postemergence, 31 g ai/ha): 20; Ryegrass, Italian plant response rating (0 to 100 scale) [18, 19]: 60
CON=C(c1cccc(OCC(F)(F)F)c1)c1c(O)c(C)nn(C)c1=O [Compound 198] | 0 | 0 | 0 | 0 | 0 | 0 | 0 | 40 | 0 | 0 | 0 | 0 | 0 | 70 | 0 | 70 | 0 | 10 | 0 | 0 | Corn plant response rating (0 to 100 scale) (corn (Zea mays); Postemergence, 31 g ai/ha): 0; Corn plant response rating (0 to 100 scale) (corn (Zea mays); [19]): 20; Barnyardgrass plant response rating (0 to 100 scale) ([12]; Postemergence, 31 g ai/ha): 20; Barnyardgrass plant response rating (0 to 100 scale) [12, 19]: 80; Ragweed plant response rating (0 to 100 scale) ([13]; Postemergence, 31 g ai/ha): 0; Ragweed plant response rating (0 to 100 scale) [13, 19]: 0; Kochia plant response rating (0 to 100 scale) (kochia (Bassia scoparia) [14]; Postemergence, 31 g ai/ha): 0; Kochia plant response rating (0 to 100 scale) (kochia (Bassia scoparia) [14]; [19]): 0; Blackgrass plant response rating (0 to 100 scale) ([15]; Postemergence, 31 g ai/ha): 0; Blackgrass plant response rating (0 to 100 scale) [15, 19]: 40; Galium plant response rating (0 to 100 scale) ([16]; Postemergence, 31 g ai/ha): 0; Galium plant response rating (0 to 100 scale) [16, 19]: 20; Foxtail, Giant plant response rating (0 to 100 scale) ([17]; Postemergence, 31 g ai/ha): 20; Foxtail, Giant plant response rating (0 to 100 scale) [17, 19]: 70; Ryegrass, Italian plant response rating (0 to 100 scale) ([18]; Postemergence, 31 g ai/ha): 0; Ryegrass, Italian plant response rating (0 to 100 scale) [18, 19]: 60
